Assays:
PKR R510Q = PKR R510Q (Homo sapiens, UniProt P30613, R510Q); assay: PKR mutant assay (R510Q), AC50, LDH/NADH-coupled, absorbance at 340 nm; format: biochemical; details: for EC50: Table 4, AC50, enzyme assay, read-out: PK R510Q; for AC50: Table 2, enzyme assay, read-out: PK R510Q AC50
Description: (§1) Example 11. PKR Mutant Assay
(§2) PKR or PKR mutant enzyme solution was diluted into a reaction mix, which contains 1× buffer (100 mM KCl, 50 mM Tris pH 7.5, 5 mM MgCl2) as well as PEP (conc depends on enzyme), 180 μM NADH, 0.5 units LDH, 1 mM DTT, 0.03% BSA; final assay concentrations after 1.11 fold dilution are indicated.
(§3) 2 μL of test compound was added into wells first, and then 180 μL reaction mix was added.
(§4) Reactions mixture with test compound was assembled except for ADP, and plates were stored for 60 minutes at room temperature.
(§5) 20 uL ADP was added to start reaction at room temperature and reaction progress was measured as changes in absorbance at 340 nm wavelength at room temperature.
(§6) Test Compound Preparation:
(§7) Test compound stock was made at 100× concentration in 100% DMSO (10 mM)
(§8) 1 to 3 dilutions were made for 11 points (i.e. 50 μl of first concentration added to 100 μl 100% DMSO to yield 3.33 mM, 50 μl of this added to 100 μl DMSO to yield 1.11 mM, and so forth) • 1 to 100 dilution into assay (2 μl in 200 μl) yielded starting concentration of 100 μM, decreasing 3 fold for 11 points.
(§9) Assay Buffer: 100 mM KCl, 50 mM Tris 7.5, 5 mM MgCl2, 1 mM DTT, 0.03% BSA
(§10) Reaction Mixture: PKR mutant enzyme: 40-400 ng/well; ADP: 0.2-1.65 mM; PEP: 0.1-0.5 mM; NADH: 180 μM; LDH: 0.5 units (Sigma #59023); DTT: 1 mM; BSA: 0.03%.

wild type PKR [1] = biological target: T1, wild type PKR (Homo sapiens, UniProt P30613); assay: PKR (wild type) enzyme AC50 assay, LDH/NADH-coupled, absorbance at 340 nm; format: biochemical; details: for EC50: Table 4, AC50, enzyme assay, read-out: PKR WT; for AC50: Table 2, enzyme assay, read-out: PKR WT AC50
Description: as §1, §2, §3, §4, §5, §6, §7, §8, §9, §10

wild type PKR [2] = biological target: T1, wild type PKR; assay: Cell based ATP assay in purified red blood cells (Cell-Titer-Glo); set-up: endogenous in cells; host or cells: purified red blood cells from healthy volunteers; details: overnight at 37° C., ATP levels; for AC50: Table 2, RBCs
Description: Example 16. Red Blood Cell (RBC) Purification
Fresh blood drawn from healthy volunteers into K2EDTA tubes was collected. Whole blood was pelleted by spinning at 500 g for 10 minutes. Cut transfusion bag port off of Purecell leukocyte reduction neofilter (Fisher NC0267633) one (1) inch above filter. Attach a 10 ml syringe barrel to the remaining cut tubing attached to neofilter. The plasma layer was removed from the pellet of the whole blood and the pellet was resuspended in 2× volume of phosphate buffered saline (PBS). Transfer 9 ml re-suspended blood cell pellet to prepared 10 ml syringe that is attached to the neofilter. Allow whole blood to gravity flow through filter until all fluid runs through upper tubing into filter disc. Add plunger to the syringe, remove syringe from clamp and invert the filter, then plunge air through the syringe filter system. Using a new 5 ml syringe, remove filtered RBCs from the bag by the syringe port and transfer purified RBCs to a 5 ml snap cap tube that has been incubated on ice. Spin 5 ml snap cap tube at 500 g for 10 minutes at 15 C, aspirate supernatant and resuspend in AGAM (1×PBS, 1% glucose, 170 mg/L adenine, 5.25 g/L mannitol) at a density of 4×10^9 cells/mL.
Example 17. Cell Based ATP Assay
For cell based ATP assays, the compound as described herein was prepared in 100% DMSO as a 10 mM stock. Serial dilutions (1:4) were performed in 96-well V-bottom storage plate and then added 1:100 to 96-well V-bottom plates containing AGAM. RBCs were diluted in AGAM media to a density of 1×10^7 cells/mL before added 90 μL/well to black clear bottom assay plates (final compound concentration at 0.1% DMSO concentration). Assay plates were sealed using aluminum foil seals and incubated overnight at 37° C. in a humidified chamber. ATP levels were read out using Cell-Titer-Glo (Promega).

PKR K410E = PKR K410E (Homo sapiens, UniProt P30613, K410E); assay: PKR mutant assay (K410E), AC50, LDH/NADH-coupled, absorbance at 340 nm; format: biochemical; details: for EC50: Table 4, AC50, enzyme assay; for AC50: Table 2, enzyme assay
Description: as §1, §2, §3, §4, §5, §6, §7, §8, §9, §10

PKR R510Q, sequence (P30613 whole entry R510Q): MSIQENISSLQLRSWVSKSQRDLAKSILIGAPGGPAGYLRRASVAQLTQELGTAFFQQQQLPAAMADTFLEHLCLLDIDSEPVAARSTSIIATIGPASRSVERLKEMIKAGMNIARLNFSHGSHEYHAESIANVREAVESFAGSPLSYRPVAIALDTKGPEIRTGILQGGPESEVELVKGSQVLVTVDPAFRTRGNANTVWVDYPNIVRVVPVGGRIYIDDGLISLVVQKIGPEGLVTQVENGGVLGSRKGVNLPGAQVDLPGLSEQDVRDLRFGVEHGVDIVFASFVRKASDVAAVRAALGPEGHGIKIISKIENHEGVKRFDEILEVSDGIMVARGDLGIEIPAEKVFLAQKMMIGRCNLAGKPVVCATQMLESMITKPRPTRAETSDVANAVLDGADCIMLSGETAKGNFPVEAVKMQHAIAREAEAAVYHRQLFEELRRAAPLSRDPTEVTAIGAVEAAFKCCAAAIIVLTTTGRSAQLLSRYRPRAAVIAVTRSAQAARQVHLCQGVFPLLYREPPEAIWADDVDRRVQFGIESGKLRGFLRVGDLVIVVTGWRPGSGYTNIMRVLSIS
PKR K410E, sequence (P30613 whole entry K410E): as the sequence (P30613 whole entry R510Q) above, with K410E, Q510R counted along it
T1 sequence (P30613 whole entry): as the sequence (P30613 whole entry R510Q) above, with Q510R counted along it

SMILES	EC50 (PKR R510Q)	EC50 (wild type PKR [1])	Cell based ATP assay (wild type PKR [2]; Table 4, AC50, RBCs)	EC50 (PKR K410E)	EC50 (wild type PKR [2]; Table 4, AC50, RBCs)	AC50 (PKR R510Q)	AC50 (wild type PKR [1])	AC50 (wild type PKR [2])	AC50 (PKR K410E)
C=CCn1ncc2c3sc(Cc4ccccn4)nc3n(C)c2c1=O [Compound 398]	> 800 nM	> 800 nM	No Fit	> 800 nM	–	–	–	–	–
Cn1c2nc(Cc3cc[nH]n3)sc2c2cnn(Cc3ccc4cc[nH]c4n3)c(=O)c21 [Compound 380]	< 300 nM	< 300 nM	–	< 300 nM	≤ 1000 nM	–	–	–	–
Cn1c2nc([S+](C)[O-])sc2c2cnn(Cc3ccc4c(c3)OCCO4)c(=O)c21 (stereo not drawn) [Compound 90]	–	–	–	–	–	< 300 nM	< 300 nM	> 1000 nM	< 300 nM
Cc1nc2c(s1)c1cnn(Cc3ccc4[nH]ncc4c3)c(=O)c1n2C [Compound 29]	–	–	–	–	–	< 300 nM	< 300 nM	> 1000 nM	< 300 nM
COc1cccc(Cn2ncc3c4sc(C(O)c5ccccc5)nc4n(C)c3c2=O)c1 (stereo not drawn) [Compound 13]	–	–	–	–	–	< 300 nM	< 300 nM	≤ 1000 nM	< 300 nM
Cn1c2nc(Cc3cncs3)sc2c2cnn(Cc3cccc4[nH]ncc34)c(=O)c21 [Compound 211]	< 300 nM	< 300 nM	–	< 300 nM	≤ 1000 nM	–	–	–	–
Cc1nc2c(s1)c1cnn(Cc3ccc4cn[nH]c4c3)c(=O)c1n2C [Compound 33]	–	–	–	–	–	301 to 800 nM	> 800 nM	> 1000 nM	> 800 nM
Cn1c2nc(Cc3cccc(N)n3)sc2c2cnn(Cc3cccc4[nH]ncc34)c(=O)c21 [Compound 276]	< 300 nM	< 300 nM	–	< 300 nM	≤ 1000 nM	–	–	–	–
CNCc1nc2c(s1)c1cnn(Cc3cccc4[nH]ncc34)c(=O)c1n2C [Compound 125]	–	–	–	–	–	301 to 800 nM	> 800 nM	> 1000 nM	> 800 nM
CSc1nc2c(s1)c1cnn(Cc3cccc(C(C)(C)O)c3)c(=O)c1n2C [Compound 85]	–	–	–	–	–	< 300 nM	< 300 nM	≤ 1000 nM	301 to 800 nM
Cn1c2nc(Cc3cc(F)[nH]n3)sc2c2cnn(Cc3cccc4[nH]ncc34)c(=O)c21 [Compound 234]	< 300 nM	< 300 nM	–	< 300 nM	> 1000 nM	–	–	–	–
COc1cccc(Cn2ncc3c4sc(Cl)nc4n(C)c3c2=O)c1 [Compound 30]	–	–	–	–	–	< 300 nM	< 300 nM	> 1000 nM	301 to 800 nM
Cc1nc2c(s1)c1cnn(Cc3ccc(N)cc3)c(=O)c1n2C [Compound 49]	–	–	–	–	–	> 800 nM	> 800 nM	> 1000 nM	> 800 nM
CC(O)c1nc2c(s1)c1cnn(Cc3cccc4[nH]ncc34)c(=O)c1n2C (stereo not drawn) [Compound 106]	–	–	–	–	–	< 300 nM	< 300 nM	≤ 1000 nM	< 300 nM
COc1ccc(Cn2ncc3c4sc(Cc5cc[nH]n5)nc4n(C)c3c2=O)cc1 [Compound 123]	–	–	–	–	–	< 300 nM	< 300 nM	≤ 1000 nM	< 300 nM
Cc1cccc(Cc2nc3c(s2)c2cnn(Cc4cccc5[nH]ncc45)c(=O)c2n3C)n1 [Compound 159]	–	–	–	–	–	< 300 nM	< 300 nM	≤ 1000 nM	< 300 nM
CNc1cccc(Cn2ncc3c4sc(C)nc4n(C)c3c2=O)c1 [Compound 70]	–	–	–	–	–	< 300 nM	< 300 nM	≤ 1000 nM	< 300 nM
COc1cccc(Cn2ncc3c4sc(C(F)(F)c5ccccc5)nc4n(C)c3c2=O)c1 [Compound 108]	–	–	–	–	–	< 300 nM	< 300 nM	≤ 1000 nM	< 300 nM

From patent US11957680B2, “Pyruvate kinase activators for use in treating blood disorders” (Agios Pharmaceuticals, Inc., priority 2017, dated 2024)
